We go through 1 compound from PMC8904451, “Novel chalcone-derived pyrazoles as potential therapeutic agents for the treatment of non-small cell lung cancer” (Scientific Reports, 2022).

For assay [1], the system named is caspase-3/7 in H460 cells. As to the kind of experiment: Caspase-3/7 activation by flow cytometry, H460. The class given is cell-based, human. The settings on record: IC90. The procedure: (§1) To explain the type of cell death that cancer cells undergo after treatment with PCH-1, the ability of the compound to activate caspases 3–7 was determined by flow cytometry. […] The most pronounced activation of caspase 3 occurred equally in A-549 and H226 cell lines after 48 h of treatment and was sevenfold greater than that in the vehicle.
(§2) Cells were seeded onto tissue culture plates and allowed to attach for 24 h. Next, the cells were treated with PCH-1 or Etoposide at IC90 concentration for 6, 24, and 48 h. After incubation, the cells were harvested by trypsinization, rinsed twice with PBS, and stained with Annexin V Alexa Fluor™ 488 conjugate (Thermo Fisher, #A13201) for apoptosis assay and with CellEvent™ Caspase-3/7 Green Flow Cytometry Assay Kit (Thermo Fisher, #C10427) for caspase-3/7 activation according to the manufacturer’s protocols. The analysis was performed with Guava EasyCyte 8 cell sorter (Merck Millipore) and FlowJo software v10. Each experiment was repeated independently three times.

For another assay, the system named is tubulin. Description: HTS-tubulin polymerization assay. The class given is biochemical. Particulars: 120-min kinetic reaction, absorbance 340 nm, vs vehicle. The procedure: To further evaluate whether the tubulin–microtubule system was the target site of PCH-1, in vitro microtubule polymerization assays were performed using the microtubule protein with Paclitaxel and Vincristine as a reference. Paclitaxel and Vincristine are antimitotic drugs that have been commonly used in conventional chemotherapy for decades. In 1979, it was shown that Paclitaxel accelerates the initiation of tubulin fiber polymerization and stabilizes the formed tubulin fibers in vitro, even in the absence of GTP or MAP in the solution[30]. Vincristine, on the other hand, binds to tubulin and inhibits its polymerization.
The assay was performed according to the manufacturer’s instructions. Briefly, compounds were diluted in DMSO to a concentration of 2 mM and then in GTB buffer to a concentration of 50 µM. In the wells of a 96-well plate (UV transparent, half surface wells) previously heated to 37 °C, 10 µl of dilutions of the test compounds were placed in duplicate. The plate was incubated for 2 min at 37 °C, and 100 µl of freshly prepared tubulin solution (4 mg/ml) in GTB-GTP buffer was then added. The plate was immediately placed in a Tecan SPARK 10 M plate reader, and the reaction kinetics were measured with the following settings: absorbance reading: 340 nm, 37 °C, interval: 45 s, number of cycles: 160.

The test system of a further assay is HEK293 cells. Description: MTT cell viability assay, HEK293. In kind it is cell-based, human. Particulars: Homo sapiens, HEK293, 72 h, nonmalignant cells, read-out: IC50 ± SD, growth inhibition, HEK293. The procedure: (§3) All the synthesized chalcone-derived pyrazoles were evaluated for their antiproliferative activity against three human non-small cell lung cancer cell lines: A-549, H226, and H460, and a nonmalignant human embryonic kidney cell line HEK293. Cisplatin and 5-fluorouracil (5-FU) were used as a reference. Cells were exposed to a range of PCH concentrations (0.5–100 µM) for 72 h and analyzed by 3-(4,5-dimethylthiazol-2-yl)-2,5-diphenyl-2H-tetrazolium bromide (MTT) assay. The results of the studies are expressed as the IC50 concentration that inhibits 50% growth of cells. […] Following treatment with PCH-1, the viability of all the tested cancer cell lines decreased in a concentration-dependent manner.
(§4) The cell viability assay was performed for A-549, H226, H460, and HEK293 cells after treatment with the test compounds by using the 3-(4,5-dimethylthiazol-2-yl)-2,5-diphenyltetrazolium bromide (MTT, Sigma-Aldrich) assay. Briefly, cells were seeded onto 96-well culture plates for attachment. After 24 h, triplicate wells were treated with DMSO (1%) and the agents. After 72 h of incubation at 37 °C in 5% CO2, the MTT solution (0.4 mg/ml) was added to each well. After 2–4 h of incubation, the medium was removed, and the formazan crystals were dissolved in 100 μl of DMSO. The absorption was measured at 450 nm with an ASYS UVM340 microplate reader (Biochrom Ltd.). The 50% inhibitory concentration (IC50) was defined as the concentration that reduced the absorbance of the DMSO-treated wells by 50% of the vehicle. The IC50 values were generated from GraphPad Prism 9 software by plotting the survival curve as a function of dose from 3 independent experiments.

The subject of a further assay is H460 cells. As to the kind of experiment: MTT cell viability assay, H460. The class given is cell-based, human. As to the method:
as §3, §4

Assay [2] deals with A-549, H226, and H460 cells. Description: Cell cycle distribution by flow cytometry, unsynchronized cells. Particulars: IC90, 24 h, vs control. In kind it is cell-based, human. The procedure:
Promising antiproliferative properties of PCH-1 led us to further investigate the effect of this compound on cell cycle distribution. Therefore, cell cycle progression was analyzed by quantifying DNA content using flow cytometry. […] To thoroughly analyze the course of the cycle, A-549 cells were synchronized with a double-thymidine block in the G1 phase and treated with IC90 concentration of PCH-1 for the indicated time. Slight alterations of the division cycle were visible after 2 h of incubation with the compound.
Cells were seeded onto tissue culture plates and allowed to attach for 24 h. Unsynchronized cells were treated with PCH-1 or Etoposide at IC90 concentration for 24 and 48 h, while synchronized cells were treated with PCH-1 or Etoposide at IC90 concentration for 2, 4, 6, 8, and 10 h. Synchronization of the cells was performed as described previously by Chen et al.[77]. Next, the cells were trypsinized, fixed in ice-cold 75% ethanol, and stored overnight at − 20 °C. After centrifugation, the cells were rinsed with PBS and stained with […] PI (Sigma-Aldrich) and […] RNaseA (Thermo Fisher) in PBS for 30 min at RT. The distribution of the cells in different phases of the cell cycle was determined by flow cytometry (Guava EasyCyte 8 cell sorter, Merck Millipore) and FlowJo software v10. Each experiment was repeated independently three times.

The test system of assay [3] is caspase-3/7 in A-549 cells. Description: Caspase-3/7 activation by flow cytometry, A-549. The class given is cell-based, human. The settings on record: IC90. The procedure: as §1, §2
Assay [4] deals with caspase-3/7 in H226 cells. As to the kind of experiment: Caspase-3/7 activation by flow cytometry, H226. In kind it is cell-based, human. Particulars: IC90. As to the method:
as §1, §2

A value given as a limit tells only on which side of the number the result lay.

In the case of `COc1ccc(C2CC(c3cc4c(cc3OC)OCO4)=NN2C(C)=O)cc1` (stereo not shown) [PCH-1, 1-[3-(6-methoxy-2H-1,3-benzodioxol-5-yl)-5-(4-methoxyphenyl)-4,5-dihydro-1H-pyrazol-1-yl]ethan-1-one], the “caspase-3/7 activation, increase compared to control, H460” value in assay [1] (6 h) is listed as 3.15 fold. In addition, in assay [1] (later exposure), the “cells with activated caspase 3/7 vs control, H460” value was “remaining approximately constant”. Also, the “effect on tubulin polymerization kinetics” value with tubulin is “remarkably reduced the total mass of tubulin polymer”. In addition, the IC50 came out at 20.9 ± 2.34 µM in the assay on HEK293 cells and 8.4 ± 1.1 µM in the assay with H460 cells (Homo sapiens, NCI-H460, 72 h, MTT, read-out: IC50 ± SD, growth inhibition, H460). The “superior activity to the reference compound Cisplatin, H460” value in the assay on H460 cells (72 h IC50 ratio) was roughly 2.6 fold. Besides, the cell cycle arrest result in assay [2] is “induced cell cycle arrest in the G2/M phase”. The “caspase-3/7 activation, increase compared to control, A-549” value in assay [3] (6 h) worked out at 2.6 fold. Besides, the “activation of caspase 3 vs vehicle, A-549” value in assay [3] (48 h) is “sevenfold”. Also, in assay [3] (later exposure), the “cells with activated caspase 3/7 vs control, A-549” value is “greater than 5.8 times”. For the same compound, in assay [4] (6 h), the “caspase-3/7 activation, increase compared to control, H226” value is given as 2.9 fold. For the same compound, the “activation of caspase 3 vs vehicle, H226” value in assay [4] (48 h) was “sevenfold”. Also, the “cells with activated caspase 3/7 vs control, H226” value in assay [4] (later exposure) is reported as greater than 4.7 times.
